Here are results for 3 substances from EP1100821B1, “ANTI-INFLAMMATORY COMPOUNDS DERIVED FROM LIPOCORTIN-1” (priority 1998, dated 2006).

In one assay the test system is A549 cell line. To be noted: in vitro A549 model; previous publications (Croxtall et al., 1993, 1998); cited from earlier work.
The subject of the next assay is PMN migration. It counts as in vivo. Conditions: peptide s.c. 30 min prior to 1 mg zymosan into 6-day-old air-pouches; PMN counted 4 h after zymosan; n=15; P<0.01. The method, then: Male Swiss Albino mice (20-22 g body weight) were purchased from Interfauna (CFLP strain; Huntingdon, Cambridgeshire, UK) and maintained on a standard chow pellet diet with tap water ad libitum. Animals were used at least one week after arrival.
Air-pouches were formed on the back of the mice by subcutaneous (s.c.) injection of 2.5 ml of air on day 2 and day 5. Three days after the last air-injection (6-day-old air-pouches) 1 mg of zymosan (in 0.5 ml of sterile saline) was injected locally (Perretti et al., 1996). Zymosan was previously boiled for 30 min in phosphate buffered solution (PBS), extensively washed in the same medium and stored at -20°C prior to use.
Four hours after the local injection of zymosan, mice were killed by CO2 exposure and the air-pouches washed with 2 ml of PBS containing ethylenediaminetetracetic acid sodium salt (EDTA; 3 mM) and heparin (25 U/ml). […] The number of PMN was determined, using a Neubauer haematocytometer, after staining (1:10 dilution) with Turk's solution (crystal violet 0.01 % w/v in acetic acid 3% v/v).
Control mice were treated with sterile PBS (100 µl s.c.).

No end group written: not given here.

As to EQEYVQTV [LC118-25], the “inhibitory effect on A549 cell function” value in the assay with A549 cell line was “significant inhibitory activity”.

In the case of “Ac-AMVSEFLKQAW [LC12-12, Ac-AMVSEFLKQAW]”, the “Approximate ED50s (inhibition of PMN migration)” value in the assay with PMN migration is reported as approximately 110 nmol.

“LC11-12: lipocortin 1 N-terminal fragment, residues 1-12, from previous publications (MAMVSEFLKQAW; UniProt P04083 1-12, looked up, fragment)”: in the assay on A549 cell line, the “inhibitory effect on A549 cell function” value is “inactive”.
